# Experimental data taken from PubChem BioAssay AID1963846 (Molecular Pharmacology Branch, DTP, NCI, 2024).
# Test system: 454973-116-R2-J3-PDC complex spheroid viability
# Assay: Anticancer human tumor 454973-116-R2-J3-PDC patient-derived pancreatic carcinoma cell line growth inhibition [POLQ]
# Details: for IC50: curve of first compound; for viability, T/C: stronger effect = lower value
# How it was run: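 Growth inhibition in 3D: complex spheroids (tumor PDC, HUVEC, MSC) treated with POLQ inhibitor combinations; where Cmax unknown, highest tested concentration 10 microM, except SN-38 at 1 microM.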
# [1] = second compound 0.0316 µM, first compound 0.00316 µM
# [2] = second compound 0.0316 µM, first compound 0.01 µM
# [3] = second compound 0.0316 µM, first compound 0.0316 µM
# [4] = second compound 0.0316 µM, first compound 0.1 µM
# [5] = second compound 0.0316 µM, first compound 0.316 µM
# [6] = second compound 0.0316 µM, first compound 1 µM
# [7] = second compound 0.1 µM, first compound 0.00316 µM
# [8] = second compound 0.1 µM, first compound 0.01 µM
# [9] = second compound 0.1 µM, first compound 0.0316 µM
# [10] = second compound 0.1 µM, first compound 0.1 µM
# [11] = second compound 0.1 µM, first compound 0.316 µM
# [12] = second compound 0.1 µM, first compound 1 µM
# [13] = second compound 0.316 µM, first compound 0.00316 µM
# [14] = second compound 0.316 µM, first compound 0.01 µM
# [15] = second compound 0.316 µM, first compound 0.0316 µM
# [16] = second compound 0.316 µM, first compound 0.1 µM
# [17] = second compound 0.316 µM, first compound 0.316 µM
# [18] = second compound 0.316 µM, first compound 1 µM
# [19] = second compound 1 µM, first compound 0.00316 µM
# [20] = second compound 1 µM, first compound 0.01 µM
# [21] = second compound 1 µM, first compound 0.0316 µM
# [22] = second compound 1 µM, first compound 0.1 µM
# [23] = second compound 1 µM, first compound 0.316 µM
# [24] = second compound 1 µM, first compound 1 µM
# [25] = second compound 3.16 µM, first compound 0.00316 µM
# [26] = second compound 3.16 µM, first compound 0.01 µM
# [27] = second compound 3.16 µM, first compound 0.0316 µM
# [28] = second compound 3.16 µM, first compound 0.1 µM
# [29] = second compound 3.16 µM, first compound 0.316 µM
# [30] = second compound 3.16 µM, first compound 1 µM
# [31] = second compound 10 µM, first compound 0.00316 µM
# [32] = second compound 10 µM, first compound 0.01 µM
# [33] = second compound 10 µM, first compound 0.0316 µM
# [34] = second compound 10 µM, first compound 0.1 µM
# [35] = second compound 10 µM, first compound 0.316 µM
# [36] = second compound 10 µM, first compound 1 µM
# 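Also: spheroids exposed to drugs for seven days before measurement.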
# 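For viability, T/C in this document: percent viability relative to DMSO vehicle control wells taken as 100%.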
smiles,measurement,setting,value
CCc1c2c(nc3ccc(O)cc13)-c1cc3c(c(=O)n1C2)COC(=O)[C@]3(O)CC + Cc1cccc(N(C)C(=O)C2C(O)CCN2c2nc(C)cc(C(F)(F)F)c2C#N)c1,IC50,second compound 0.0316 µM,< 3.16 nM
same,IC50,second compound 0.1 µM,< 3.16 nM
same,IC50,second compound 0.316 µM,< 3.16 nM
same,IC50,second compound 1 µM,< 3.16 nM
same,IC50,second compound 3.16 µM,< 3.16 nM
same,IC50,second compound 10 µM,< 3.16 nM
same,"viability, T/C",[1],32.6%
same,"viability, T/C",[2],17.2%
same,"viability, T/C",[3],13.2%
same,"viability, T/C",[4],6.84%
same,"viability, T/C",[5],2.58%
same,"viability, T/C",[6],1.69%
same,"viability, T/C",[7],31.1%
same,"viability, T/C",[8],19.1%
same,"viability, T/C",[9],13.6%
same,"viability, T/C",[10],5.52%
same,"viability, T/C",[11],2.13%
same,"viability, T/C",[12],1.7%
same,"viability, T/C",[13],28.8%
same,"viability, T/C",[14],17.2%
same,"viability, T/C",[15],15%
same,"viability, T/C",[16],5.17%
same,"viability, T/C",[17],1.9%
same,"viability, T/C",[18],1.61%
same,"viability, T/C",[19],35.7%
same,"viability, T/C",[20],18.7%
same,"viability, T/C",[21],11.5%
same,"viability, T/C",[22],5.4%
same,"viability, T/C",[23],2.24%
same,"viability, T/C",[24],1.72%
same,"viability, T/C",[25],33.6%
same,"viability, T/C",[26],21.9%
same,"viability, T/C",[27],13.1%
same,"viability, T/C",[28],5.13%
same,"viability, T/C",[29],2.23%
same,"viability, T/C",[30],1.68%
same,"viability, T/C",[31],26.3%
same,"viability, T/C",[32],21.5%
same,"viability, T/C",[33],12.8%
same,"viability, T/C",[34],4.56%
same,"viability, T/C",[35],1.72%
same,"viability, T/C",[36],4.16%
C=CC(=O)N1CCN(c2nc(=O)n(-c3c(C)ccnc3C(C)C)c3nc(-c4c(O)cccc4F)c(F)cc23)C(C)C1 (stereo unspecified) + Cc1cccc(N(C)C(=O)C2C(O)CCN2c2nc(C)cc(C(F)(F)F)c2C#N)c1,IC50,second compound 0.0316 µM,> 10000 nM
same,IC50,second compound 0.1 µM,> 10000 nM
same,IC50,second compound 0.316 µM,> 10000 nM
same,IC50,second compound 1 µM,> 10000 nM
same,IC50,second compound 3.16 µM,> 10000 nM
same,IC50,second compound 10 µM,> 10000 nM
same,"viability, T/C",[3],100%
same,"viability, T/C",[4],99.5%
same,"viability, T/C",[5],98.7%
same,"viability, T/C",[6],115%
same,"viability, T/C","second compound 0.0316 µM, first compound 3.16 µM",106%
same,"viability, T/C","second compound 0.0316 µM, first compound 10 µM",109%
same,"viability, T/C",[9],96.9%
same,"viability, T/C",[10],101%
same,"viability, T/C",[11],107%
same,"viability, T/C",[12],107%
same,"viability, T/C","second compound 0.1 µM, first compound 3.16 µM",110%
same,"viability, T/C","second compound 0.1 µM, first compound 10 µM",115%
same,"viability, T/C",[15],101%
same,"viability, T/C",[16],107%
same,"viability, T/C",[17],108%
same,"viability, T/C",[18],106%
same,"viability, T/C","second compound 0.316 µM, first compound 3.16 µM",108%
same,"viability, T/C","second compound 0.316 µM, first compound 10 µM",111%
same,"viability, T/C",[21],108%
same,"viability, T/C",[22],102%
same,"viability, T/C",[23],115%
same,"viability, T/C",[24],105%
same,"viability, T/C","second compound 1 µM, first compound 3.16 µM",110%
same,"viability, T/C","second compound 1 µM, first compound 10 µM",110%
same,"viability, T/C",[27],107%
same,"viability, T/C",[28],111%
same,"viability, T/C",[29],103%
same,"viability, T/C",[30],118%
same,"viability, T/C","second compound 3.16 µM, first compound 3.16 µM",112%
same,"viability, T/C","second compound 3.16 µM, first compound 10 µM",108%
same,"viability, T/C",[33],115%
same,"viability, T/C",[34],102%
same,"viability, T/C",[35],109%
same,"viability, T/C",[36],113%
same,"viability, T/C","second compound 10 µM, first compound 3.16 µM",111%
same,"viability, T/C","second compound 10 µM, first compound 10 µM",109%
CC[C@@]1(O)C(=O)OCc2c1cc1n(c2=O)Cc2cc3c(CN(C)C)c(O)ccc3nc2-1 + COC1C(OC(N)=O)C(O)C(Oc2ccc3c(O)c(NC(=O)c4ccc(O)c(CC=C(C)C)c4)c(=O)oc3c2C)OC1(C)C,IC50,second compound 0.0316 µM,20 nM
same,IC50,second compound 0.1 µM,17.8 nM
same,IC50,second compound 0.316 µM,18.4 nM
same,IC50,second compound 1 µM,18.9 nM
same,IC50,second compound 3.16 µM,18.3 nM
same,IC50,second compound 10 µM,17.5 nM
same,"viability, T/C","second compound 0.0316 µM, first compound 0.000316 µM",113%
same,"viability, T/C","second compound 0.0316 µM, first compound 0.001 µM",106%
same,"viability, T/C",[1],105%
same,"viability, T/C",[2],86.8%
same,"viability, T/C",[3],25.5%
same,"viability, T/C",[4],14.9%
same,"viability, T/C","second compound 0.1 µM, first compound 0.000316 µM",106%
same,"viability, T/C","second compound 0.1 µM, first compound 0.001 µM",106%
same,"viability, T/C",[7],103%
same,"viability, T/C",[8],82.6%
same,"viability, T/C",[9],17.1%
same,"viability, T/C",[10],16.3%
same,"viability, T/C","second compound 0.316 µM, first compound 0.000316 µM",109%
same,"viability, T/C","second compound 0.316 µM, first compound 0.001 µM",100%
same,"viability, T/C",[13],108%
same,"viability, T/C",[14],88.9%
same,"viability, T/C",[15],15.8%
same,"viability, T/C",[16],13.8%
same,"viability, T/C","second compound 1 µM, first compound 0.000316 µM",113%
same,"viability, T/C","second compound 1 µM, first compound 0.001 µM",101%
same,"viability, T/C",[19],108%
same,"viability, T/C",[20],91.1%
same,"viability, T/C",[21],15.8%
same,"viability, T/C",[22],18.1%
same,"viability, T/C","second compound 3.16 µM, first compound 0.000316 µM",110%
same,"viability, T/C","second compound 3.16 µM, first compound 0.001 µM",113%
same,"viability, T/C",[25],107%
same,"viability, T/C",[26],79.6%
same,"viability, T/C",[27],22.8%
same,"viability, T/C",[28],19%
same,"viability, T/C","second compound 10 µM, first compound 0.000316 µM",109%
same,"viability, T/C","second compound 10 µM, first compound 0.001 µM",104%
same,"viability, T/C",[31],99.9%
same,"viability, T/C",[32],76.5%
same,"viability, T/C",[33],21.4%
same,"viability, T/C",[34],20.3%
